Experimental data: patent US11667623B2, “Scaffold of adenylyl cyclase inhibitors for chronic pain and opioid dependence” (Purdue Research Foundation, priority 2017, dated 2023)
Where two headings read alike, the source gives them in different places.

Assays:
hAC1 = molecular target: T1, hAC1 (Homo sapiens, UniProt Q08828); experiment: Cyclic AMP accumulation (HTRF) in HEK cells stably expressing AC1, stimulated with A23187; assay type: cell-based; conditions: for Selectivity AC1 vs AC8: AC8 IC50/AC1 IC50, without AC8 IC50, estimate based on IC50 ≥30 μM; for inhibition at 30 µM: HEK293
T1 construct: expressed in transfected cells
Experimental: The screen was carried out using HEK cells stably expressing AC1 (HEK-AC1) and cyclic AMP accumulation was stimulated using the Ca^2+ ionophore, A23187 to selectively activate AC1.
Both AC1 and AC8 are robustly activated by Ca^2+/CaM under a variety of conditions, whereas the effects of Ca^2+/CaM on AC3 are modest and conditional requiring activation by G proteins.
The primary technology we employed to measure cAMP accumulation was a homogenous time-resolved fluorescence (HTRF) assay, the same technology utilized in the primary screen. […]
(§1) Briefly, cryopreserved cells were thawed, resuspended in optiMEM (Life Technologies), and plated in white, flat bottom, low-volume, tissue culture-treated 384 well plates (PerkinElmer, Shelton, Conn.). Plates with cells were incubated in a 37° C. humidified incubator for 1 h. Inhibitors were added and plates were incubated at room temperature for 30 min followed by the addition of AC stimulants in the presence of 500 μM IBMX. Cells were incubated at room temperature for 1 h and cAMP accumulation was measured using Cisbio's cAMP kit (Cisbio Bioassays, Bedford, Mass.) according to the manufacturer's instructions.

hAC8 = molecular target: T2, hAC8 (Homo sapiens, UniProt P40145); experiment: Cyclic AMP accumulation (HTRF) in HEK cells stably expressing AC8, stimulated with A23187; assay type: cell-based; conditions: for hAC8 % Inhib: at 30 μM, negative values indicate a potentiated response; for inhibition at 30 µM: HEK293
T2 construct: expressed in transfected cells
Experimental: Fresh powders of several robust inhibitors (>90% inhibition) were evaluated in multiple confirmation assays assessing the dose response relationship for inhibiting AC1 and AC8 activity. Confirmation assays used A23817 to selectively stimulate recombinant AC1 or AC8 in the HEK cell background (Cumbay and Watts (2001), J. Pharmacol Exp Ther 297:1201-1399). This approach takes advantage of one unique regulatory property of AC1 for the development of selective inhibitors. Both AC1 and AC8 are robustly activated by Ca^2+/CaM under a variety of conditions, whereas the effects of Ca^2+/CaM on AC3 are modest and conditional requiring activation by G proteins. Previous studies have identified unique Ca^2+/CaM binding domains as one possible site of interaction to achieve AC1 (vs. AC8) selectivity (Masada et al., 2012, Biochemistry 51:7917-7929).
The primary technology we employed to measure cAMP accumulation was a homogenous time-resolved fluorescence (HTRF) assay, the same technology utilized in the primary screen.
Human embryonic kidney (HEK) cells stably expressing AC1, AC8, or AC1 with the MOR were cultured in Dulbecco's Modified Eagle Medium (Life Technologies, Grand Island, N.Y.) supplemented with 5% bovine calf serum (Hyclone, Logan, Utah), 5% fetal clone I (Hyclone), Antibiotic-Antimycotic (Life Technologies), and G418 (Invivogen, San Diego, Calif.) (HEK-AC1), or hygromycin B (Fisher Scientific, Pittsburgh, Pa.) (HEK-AC8), or G418 and puromycin (Sigma-Aldrich) (HEK-AC1/MOR). Chinese hamster ovary (CHO) cells expressing the MOR (CHO-MOR) in the PathHunter® β-Arrestin GPCR assay platform were purchased from DiscoveRx (Freemont, Calif.). Cells were grown in Ham's F12 media supplemented with 1 mM L-glutamine (Thermo Scientific, West Palm Beach, Fla.), 10% fetal bovine serum (Hyclone), 50 Um′ penicillin, 50 μg/ml streptomycin (Life Technologies), G418 and hygromycin B. Cells were grown and frozen as previously described (J. M. Conley, et al., J Vis Exp, e51218 (2014)).
as §1, with “Cyclic AMP accumulation was measured as previously described (Brust, et al., J. Pharmacol. Exp. Ther. 352, 480-493(2015)). Briefly,” for “Briefly,”

hAC2 = molecular target: T3, hAC2 (Homo sapiens, UniProt Q08462); experiment: Cyclic AMP accumulation in stable HEK-AC2 cells, stimulated with 100 nM PMA; assay type: cell-based; conditions: Table 1, at 30 μM, negative = potentiated, n = 2
T3 construct: expressed in transfected cells
Experimental: as §1, with “Cyclic AMP accumulation was measured as previously described (Brust, et al., J. Pharmacol. Exp. Ther. 352, 480-493(2015)). Briefly,” for “Briefly,”

hAC5 = molecular target: T4, hAC5 (Homo sapiens, UniProt O95622); experiment: Cyclic AMP accumulation in stable HEK-AC5 cells, stimulated with 300 nM forskolin; assay type: cell-based; conditions: Table 1, at 30 μM, negative = potentiated, n = 2
T4 construct: expressed in transfected cells
Experimental: as §1, with “Cyclic AMP accumulation was measured as previously described (Brust, et al., J. Pharmacol. Exp. Ther. 352, 480-493(2015)). Briefly,” for “Briefly,”

chronic pain responses [1] = conditions: mice; literature; cited from earlier work
chronic pain responses [2] = conditions: rats; literature; cited from earlier work
[3] = Table 1, stable HEK cells, A23187-stimulated cAMP, n ≥ 3
[4] = Table 1, stable HEK cells, A23187-stimulated cAMP, n ≥ 3, read-out: hAC1 IC50
[5] = Table 1, stable HEK cells, A23187-stimulated cAMP, n ≥ 3, read-out: hAC8 IC50
[6] = Table 2, read-out: HEK-AC1 IC50

T3 sequence (Q08462 whole entry): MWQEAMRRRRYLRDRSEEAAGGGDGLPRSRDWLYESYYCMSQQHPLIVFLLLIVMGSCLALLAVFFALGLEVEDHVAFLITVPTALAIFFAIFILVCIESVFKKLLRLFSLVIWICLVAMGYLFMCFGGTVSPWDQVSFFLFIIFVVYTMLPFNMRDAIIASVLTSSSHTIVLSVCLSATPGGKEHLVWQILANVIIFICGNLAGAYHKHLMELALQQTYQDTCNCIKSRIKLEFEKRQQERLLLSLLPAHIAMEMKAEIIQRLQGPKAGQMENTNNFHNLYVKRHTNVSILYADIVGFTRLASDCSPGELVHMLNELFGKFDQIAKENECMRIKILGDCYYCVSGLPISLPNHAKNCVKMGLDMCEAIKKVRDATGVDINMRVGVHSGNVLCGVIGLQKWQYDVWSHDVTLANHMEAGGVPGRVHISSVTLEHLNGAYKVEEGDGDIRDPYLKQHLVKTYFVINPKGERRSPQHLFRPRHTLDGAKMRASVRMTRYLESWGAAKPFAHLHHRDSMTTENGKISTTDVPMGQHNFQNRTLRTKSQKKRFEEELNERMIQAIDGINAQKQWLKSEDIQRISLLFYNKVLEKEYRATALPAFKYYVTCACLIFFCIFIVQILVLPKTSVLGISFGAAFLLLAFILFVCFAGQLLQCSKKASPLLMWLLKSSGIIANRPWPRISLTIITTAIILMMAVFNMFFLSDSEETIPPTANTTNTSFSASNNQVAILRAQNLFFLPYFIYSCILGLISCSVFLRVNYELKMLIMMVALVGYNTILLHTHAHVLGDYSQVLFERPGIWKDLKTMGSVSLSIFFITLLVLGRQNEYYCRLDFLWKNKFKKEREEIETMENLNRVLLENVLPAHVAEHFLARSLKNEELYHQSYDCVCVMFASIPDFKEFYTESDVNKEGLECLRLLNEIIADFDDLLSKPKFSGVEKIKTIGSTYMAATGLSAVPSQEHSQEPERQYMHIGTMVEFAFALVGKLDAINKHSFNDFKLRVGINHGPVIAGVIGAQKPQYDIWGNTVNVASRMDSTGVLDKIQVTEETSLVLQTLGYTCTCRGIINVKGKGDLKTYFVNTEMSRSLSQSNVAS
T1 sequence (Q08828 whole entry): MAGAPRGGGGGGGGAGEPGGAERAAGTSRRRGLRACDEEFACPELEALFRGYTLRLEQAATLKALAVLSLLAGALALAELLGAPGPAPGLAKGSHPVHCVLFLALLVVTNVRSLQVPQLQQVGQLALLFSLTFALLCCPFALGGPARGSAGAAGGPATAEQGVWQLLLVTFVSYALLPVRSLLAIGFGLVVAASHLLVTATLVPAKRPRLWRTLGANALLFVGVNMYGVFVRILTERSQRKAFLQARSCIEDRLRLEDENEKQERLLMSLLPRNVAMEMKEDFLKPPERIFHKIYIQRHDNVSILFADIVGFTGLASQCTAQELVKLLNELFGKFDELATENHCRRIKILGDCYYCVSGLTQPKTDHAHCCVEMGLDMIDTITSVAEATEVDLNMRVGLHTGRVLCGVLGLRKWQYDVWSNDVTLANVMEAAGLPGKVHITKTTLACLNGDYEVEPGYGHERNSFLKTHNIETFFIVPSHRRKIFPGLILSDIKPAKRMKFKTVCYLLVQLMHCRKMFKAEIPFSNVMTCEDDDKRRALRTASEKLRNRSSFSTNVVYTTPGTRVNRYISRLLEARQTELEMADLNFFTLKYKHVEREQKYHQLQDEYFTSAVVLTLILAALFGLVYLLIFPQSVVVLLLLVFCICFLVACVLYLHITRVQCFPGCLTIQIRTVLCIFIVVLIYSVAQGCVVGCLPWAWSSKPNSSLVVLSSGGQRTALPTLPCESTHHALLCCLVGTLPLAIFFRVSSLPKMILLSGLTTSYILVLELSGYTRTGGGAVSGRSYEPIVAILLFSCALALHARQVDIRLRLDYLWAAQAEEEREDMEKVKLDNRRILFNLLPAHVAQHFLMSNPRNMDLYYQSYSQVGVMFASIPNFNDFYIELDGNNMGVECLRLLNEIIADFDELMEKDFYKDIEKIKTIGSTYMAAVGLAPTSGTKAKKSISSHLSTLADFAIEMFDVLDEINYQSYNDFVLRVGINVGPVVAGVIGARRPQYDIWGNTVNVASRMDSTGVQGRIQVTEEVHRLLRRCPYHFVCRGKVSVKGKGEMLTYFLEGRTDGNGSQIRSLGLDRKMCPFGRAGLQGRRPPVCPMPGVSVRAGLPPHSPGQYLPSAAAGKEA
T2 sequence (P40145 whole entry): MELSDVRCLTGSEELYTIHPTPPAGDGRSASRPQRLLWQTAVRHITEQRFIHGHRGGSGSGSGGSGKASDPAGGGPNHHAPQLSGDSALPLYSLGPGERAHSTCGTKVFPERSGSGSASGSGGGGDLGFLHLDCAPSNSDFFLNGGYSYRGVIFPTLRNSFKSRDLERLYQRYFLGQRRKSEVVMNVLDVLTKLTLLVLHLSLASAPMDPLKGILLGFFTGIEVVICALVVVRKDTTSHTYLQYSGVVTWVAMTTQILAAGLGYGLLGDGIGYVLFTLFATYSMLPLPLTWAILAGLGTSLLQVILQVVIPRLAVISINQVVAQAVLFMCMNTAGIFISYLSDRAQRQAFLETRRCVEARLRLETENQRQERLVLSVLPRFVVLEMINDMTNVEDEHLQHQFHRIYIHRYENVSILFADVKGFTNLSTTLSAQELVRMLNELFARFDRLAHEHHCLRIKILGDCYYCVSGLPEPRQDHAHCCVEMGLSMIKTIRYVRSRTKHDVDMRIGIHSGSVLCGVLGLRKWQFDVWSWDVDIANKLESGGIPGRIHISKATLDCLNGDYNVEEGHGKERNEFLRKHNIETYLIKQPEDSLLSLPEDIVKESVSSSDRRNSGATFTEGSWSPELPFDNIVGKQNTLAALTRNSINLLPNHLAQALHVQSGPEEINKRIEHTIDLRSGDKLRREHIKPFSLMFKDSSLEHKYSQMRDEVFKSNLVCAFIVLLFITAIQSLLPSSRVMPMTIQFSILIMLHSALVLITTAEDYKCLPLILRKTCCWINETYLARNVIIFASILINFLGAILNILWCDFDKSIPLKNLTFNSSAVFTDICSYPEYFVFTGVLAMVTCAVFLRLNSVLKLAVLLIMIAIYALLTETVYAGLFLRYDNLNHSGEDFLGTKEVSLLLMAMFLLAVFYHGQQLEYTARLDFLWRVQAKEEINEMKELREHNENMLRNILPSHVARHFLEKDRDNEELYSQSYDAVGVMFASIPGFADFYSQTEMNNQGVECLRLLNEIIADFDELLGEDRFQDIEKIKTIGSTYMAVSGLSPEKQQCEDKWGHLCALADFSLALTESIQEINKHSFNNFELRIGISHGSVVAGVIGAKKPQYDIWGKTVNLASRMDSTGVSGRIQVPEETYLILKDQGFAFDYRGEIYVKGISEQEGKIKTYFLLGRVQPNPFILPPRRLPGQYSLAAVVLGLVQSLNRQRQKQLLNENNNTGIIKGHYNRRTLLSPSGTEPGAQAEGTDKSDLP
T4 sequence (O95622 whole entry): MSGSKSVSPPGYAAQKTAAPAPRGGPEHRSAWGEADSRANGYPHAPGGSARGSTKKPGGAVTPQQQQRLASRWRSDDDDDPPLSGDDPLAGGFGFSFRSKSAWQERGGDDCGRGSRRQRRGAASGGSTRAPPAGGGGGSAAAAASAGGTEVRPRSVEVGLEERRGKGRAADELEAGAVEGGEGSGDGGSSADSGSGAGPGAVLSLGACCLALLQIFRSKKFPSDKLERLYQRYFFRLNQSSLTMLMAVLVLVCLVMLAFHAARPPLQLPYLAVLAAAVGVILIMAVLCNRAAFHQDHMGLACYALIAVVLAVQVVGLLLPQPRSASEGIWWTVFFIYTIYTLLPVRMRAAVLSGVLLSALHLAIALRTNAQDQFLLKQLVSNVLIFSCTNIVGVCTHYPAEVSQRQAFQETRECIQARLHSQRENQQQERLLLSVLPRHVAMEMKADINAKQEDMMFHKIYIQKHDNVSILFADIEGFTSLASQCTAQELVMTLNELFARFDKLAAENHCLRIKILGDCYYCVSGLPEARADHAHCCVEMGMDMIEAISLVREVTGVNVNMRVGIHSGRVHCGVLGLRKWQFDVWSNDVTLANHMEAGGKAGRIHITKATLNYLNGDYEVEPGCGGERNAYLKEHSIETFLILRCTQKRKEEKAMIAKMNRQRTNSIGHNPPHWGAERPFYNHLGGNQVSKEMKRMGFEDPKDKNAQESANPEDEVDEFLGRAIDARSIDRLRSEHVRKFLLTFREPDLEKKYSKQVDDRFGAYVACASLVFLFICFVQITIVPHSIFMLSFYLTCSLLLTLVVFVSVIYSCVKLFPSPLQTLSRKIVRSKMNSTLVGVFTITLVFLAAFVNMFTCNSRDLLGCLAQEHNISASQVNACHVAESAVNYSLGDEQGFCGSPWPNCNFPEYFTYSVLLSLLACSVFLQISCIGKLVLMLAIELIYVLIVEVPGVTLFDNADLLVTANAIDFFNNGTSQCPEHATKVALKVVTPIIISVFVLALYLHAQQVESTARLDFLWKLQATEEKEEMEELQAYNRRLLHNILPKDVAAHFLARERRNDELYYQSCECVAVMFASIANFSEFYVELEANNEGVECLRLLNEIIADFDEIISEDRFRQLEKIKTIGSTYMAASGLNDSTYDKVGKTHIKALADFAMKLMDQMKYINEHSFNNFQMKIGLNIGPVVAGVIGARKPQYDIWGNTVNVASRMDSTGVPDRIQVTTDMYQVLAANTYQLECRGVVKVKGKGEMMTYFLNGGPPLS
Experimental for HEK-AC1 cells: Cell viability assays were conducted with HEK-AC1 cells following plating and compound incubation protocols identical to the procedures described above in “Cyclic AMP assays in cells”. Cell viability was measured as a percentage of vehicle using 2% Triton X-100 (Sigma-Aldrich) as a control. The CellTiter-Glo® Luminescent Cell Viability Assay kit from Promega (Madison, Wis.) was employed to assess cell viability according to the manufacturer's instructions. Luminescence counts were measured using a Synergy 4.

Compound	Selectivity AC1 vs AC8 (hAC1)	hAC1 % Inhib (hAC1; [3]) [%]	IC50 (hAC1; [4]) [µM]	hAC8 % Inhib (hAC8; Table 1) [%]	hAC2 % Inhib (hAC2) [%]	hAC5 % Inhib (hAC5) [%]	Viability % Veh (HEK-AC1 cells) [% Veh]	inhibition at 30 µM (hAC1; Table 2) [%]	IC50 (hAC1; [6]) [µM]	inhibition at 30 µM (hAC8; Table 2) [%]	further results
O=C(Nc1nnc(-c2ccc3c(c2)CCCC3)o1)c1ccccc1 [Compound F0608-0538]	10-fold	101 ± 1	2.1 ± 0.4	76 ± 8	−95	−34	118 ± 6				IC50 (hAC8; [5]): 21 ± 4 µM
CCc1cc(=O)nc(-n2nc(C)cc2NC(=O)c2ccccc2F)[nH]1 [AC10048, N-(1-(6-ethyl-4-oxo-1,4-dihydropyrimidin-2-yl)-3-methyl-1H-pyrazol-5-yl)-2-fluorobenzamide]								99 ± 2	0.58 ± 0.2	19 ± 11	
Cc1cc(NC(=O)c2cccc(F)c2)n(-c2nc(=O)cc(C)[nH]2)n1 [AC10057, 3-fluoro-N-(3-methyl-1-(6-methyl-4-oxo-1,4-dihydropyrimidin-2-yl)-1H-pyrazol-5-yl)benzamide]								94 ± 1	3.7 ± 0.2	9 ± 2	
Nc1ncnc2c1ncn2CCNCCCCCO [NB001]											chronic pain responses (inflammatory and neuropathic) (chronic pain responses [1]): markedly attenuated chronic pain responses; chronic pain responses (inflammatory and neuropathic) (chronic pain responses [2]): markedly attenuated chronic pain responses
CCc1cc(=O)nc(-n2nc(C)cc2NC(=O)c2ccc(Cl)cc2)[nH]1 [AC10058, 4-chloro-N-(1-(6-ethyl-4-oxo-1,4-dihydropyrimidin-2-yl)-3-methyl-1H-pyrazol-5-yl)benzamide]								99 ± 1	1.2 ± 0.2	19 ± 4	
CC1CC(C)CN(S(=O)(=O)c2ccc(C(=O)Nc3nnc(-c4cccs4)o3)cc2)C1 (stereo not drawn) [Compound F0559-0346]	2-fold	99 ± 1	9.1 ± 2	74 ± 13	−6	4	118 ± 2				IC50 (hAC8; [5]): 17 ± 6 µM
CCc1cc(=O)nc(-n2nc(C)cc2NC(=O)C2CC2)[nH]1 [AC10050, N-(1-(6-ethyl-4-oxo-1,4-dihydropyrimidin-2-yl)-3-methyl-1H-pyrazol-5-yl)cyclopropanecarboxamide]								79 ± 4	16.7 ± 1		
Cc1cc(NC(=O)C2CC2)n(-c2nc(=O)cc(C)[nH]2)n1 [AC10051, N-(3-methyl-1-(6-methyl-4-oxo-1,4-dihydropyrimidin-2-yl)-1H-pyrazol-5-yl)cyclopropanecarboxamide]								4 ± 7			
CCc1cc(=O)nc(-n2nc(C)cc2NC(=O)c2cccc(F)c2)[nH]1 [AC10049, N-(1-(6-ethyl-4-oxo-1,4-dihydropyrimidin-2-yl)-3-methyl-1H-pyrazol-5-yl)-3-fluorobenzamide]								98 ± 1	1.3 ± 0.2	26 ± 4	IC50 (hAC8; Table 2, read-out: HEK-AC8 IC50): 68 ± 10 µM
O=C(Nc1nnc(-c2ccc3c(c2)OCCO3)o1)c1ccc(Br)cc1 [Compound F0608-0011]	9-fold	101 ± 1	2 ± 0.2	79 ± 1	−7	−10	125 ± 3				IC50 (hAC8; [5]): 18 ± 2 µM
CSc1ccccc1C(=O)Nc1cc(C)nn1-c1nc2c(c(=O)[nH]1)CCC2 [Compound F2215-0954]	>5-fold	99 ± 1	5.9 ± 0.4	35 ± 8	−185	−21	106 ± 14				
Cc1cc(NC(=O)c2ccco2)n(-c2nc(=O)cc(C)[nH]2)n1 [AC10043, N-(3-methyl-1-(6-methyl-4-oxo-1,4-dihydropyrimidin-2-yl)-1H-pyrazol-5-yl)furan-2-carboxamide]								92 ± 2	10.3 ± 2	16 ± 9	
Cc1cc(NC(=O)c2ccccc2F)n(-c2nc(=O)cc(C)[nH]2)n1 [AC10042, 2-Fluoro-N-(3-methyl-1-(6-methyl-4-oxo-1,4-dihydropyrimidin-2-yl)-1H-pyrazol-5-yl)benzamide]								101 ± 0.7	1.5 ± 0.3	9 ± 4	
CCc1cc(=O)[nH]c(-n2nc(C)cc2NC(=O)c2ccccc2F)n1 [Compound F2215-0213]		99 ± 1	0.5 ± 0.1	20 ± 1	−70	9	101 ± 17				
CSc1cccc(C(=O)Nc2nnc(C3CCCCC3)o2)c1 [Compound F2289-0107]	>4-fold	99 ± 1	7.5 ± 2	31 ± 2	−210	−28	117 ± 1				
CCc1c(C)nc(-n2nc(C)cc2NC(=O)c2ccco2)[nH]c1=O [Compound F2215-0772]	>30-fold	100 ± 1	0.9 ± 0.2	34 ± 7	32	13	93 ± 1				
